Reference: patent US10947222B2, “Indole derivatives useful as inhibitors of diacylglyceride O-acyltransferase 2” (Merck Sharp & Dohme Corp., priority 2016, dated 2021)

Target: human DGAT2 (hDGAT2) (Homo sapiens (Human), UniProt Q96PD7)
Assay: DGAT2 enzymatic activity assay (triolein formation, LC/MS/MS)
Assay type: biochemical
Details: Sf-9 membrane prep expressing hDGAT2; 25 μM diolein, 10 μM oleoyl-CoA; triolein by LC/MS/MS
Procedure: Sf-9 insect cells were maintained in Grace's insect cell culture medium with 10% heated-inactivated fetal bovine serum, 1% Pluronic F-68 and 0.14 μg/ml Kanamycine sulfate in Erlenmeyer flasks at 28° C. in a shaker incubator. After infection with untagged baculovirus expressing human DGAT2 (hDGAT2) at multiplicity of infection (MOI) 0.1 for 48 hours, cells were harvested. Cell pellets were suspended in buffer containing 10 mM Tris-HCl (pH 7.5), 1 mM EDTA (pH 8.0), 250 mM sucrose and Complete Protease Inhibitor Cocktail (Roche Diagnostics Corp., Indianapolis, Ill.), and sonicated on ice. Membrane fractions were isolated by ultracentrifugation (100,000×g pellet), resuspended in the same buffer, and frozen (−80° C.) for later use. The protein concentration was determined with the BCA Protein Assay kit (Pierce Biotechnology Inc., Rockford, Ill.). Expression of protein levels was analyzed by immunoblotting with goat polyclonal DGAT2 antibody C-15 and donkey anti-goat IgG HRP (Santa Cruz Biotechnology, Inc., Santa Cruz, Calif.) followed by detection with ECL reagent (GE Healthcare, Piscataway, N.J.).
LC/MS/MS analyses were performed using Thermal Fisher's LX4-TSQ Vantage system. This system consists of an Agilent binary high-performance liquid chromatography (HPLC) pumps and a TSQ Vantage triple quadrupole MS/MS instrument. For each sample, 2 μL samples from the top organic layer of in-plate liquid-liquid extraction were injected onto a Thermo Betabasic C4 column (2.1 mm×20 mm, 5 μm particle size). The samples were then eluted using the following conditions; mobile phase: methanol/water with 0.1% ammonium format=92/8 (v/v), flow rate: 1 mL/min, temperature: 25 C. Data was acquired in positive mode using a heated electrospray ionization (HESI) interface. The operational parameters for the TSQ Vantage MS/MS instrument were a spray voltage of 3000 V, capillary temperature of 280° C., vaporizer temperature 400° C., shealth gas 60 arbitrary unit, Aux gas 40 arbitrary units, S-lens 113 and collision gas 0.16 Pascals. […] (SRM) chromatograms of triolein (Q1:902.9>Q3:602.3) and internal standard (Q1:902.9>Q3:602.3) were collected for 40 sec. The peak area was integrated by Xcalibur Quan software. The ratio between the triolein generated in the reaction and spiked in internal standard was used to generate percentage inhibition and IC50 values. Compound percentage inhibition was calculated by the following formula: Inhibition %/=1−[(compound response−low control)/(high control−low control)]×100%. Potent compounds were titrated and IC50 were calculated by 4 parameter sigmoidal curve fitting formula.
DGAT2 activity was determined by measuring the amount of enzymatic product triolein (1,2,3-Tri(cis-9-octadecenoyl)glycerol) using the membrane prep mentioned above. The assay was carried out in deep well 384 plates in a final volume of 40 μL at rt. The assay mixture contained the following: assay buffer (100 mM Tris.Cl, pH 7.0, 20 mM MgCl2, 5% ethanol), 25 μM of diolein, 10 μM of oleoyl-CoA and 10 ng/μL of DGAT2 membrane.

Sequence of human DGAT2 (hDGAT2) (Q96PD7 whole entry): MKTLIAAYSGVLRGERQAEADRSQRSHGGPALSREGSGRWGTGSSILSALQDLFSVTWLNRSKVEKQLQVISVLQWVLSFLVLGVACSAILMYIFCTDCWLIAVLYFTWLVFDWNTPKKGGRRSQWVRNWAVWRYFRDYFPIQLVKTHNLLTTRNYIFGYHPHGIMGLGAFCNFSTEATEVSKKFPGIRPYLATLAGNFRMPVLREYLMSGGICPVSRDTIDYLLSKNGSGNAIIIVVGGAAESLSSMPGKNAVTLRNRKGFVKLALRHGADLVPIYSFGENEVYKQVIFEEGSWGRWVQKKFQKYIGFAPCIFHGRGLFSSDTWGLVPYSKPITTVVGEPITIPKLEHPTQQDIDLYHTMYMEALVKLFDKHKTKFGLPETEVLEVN

Compound: O=C(NC1CCS(=O)(=O)C1)c1ccc2c(-c3ccccc3)cn(-c3ccc(F)cc3)c2c1 (racemic) [Example 43, N-(1,1-dioxidotetrahydrothiophen-3-yl)-1-(4-fluorophenyl)-3-phenyl-1H-indole-6-carboxamide (racemic)]
- IC50: 55 nM

Compound: O=C(NC1CCS(=O)(=O)C1)c1ccc2c(-c3cccc(Cl)c3Cl)cn(-c3ccc(F)cc3)c2c1 (racemic) [Example 44, 3-(2,3-dichlorophenyl)-N-(1,1-dioxidotetrahydrothiophen-3-yl)-1-(4-fluorophenyl)-1H-indole-6-carboxamide (racemic)]
- IC50: 19 nM

Compound: N#Cc1cccc(-c2cn(-c3ccc(F)cc3)c3cc(C(=O)NC4CCS(=O)(=O)C4)ccc23)c1 (racemic) [Example 45, 3-(3-cyanophenyl)-N-(1,1-dioxidotetrahydrothiophen-3-yl)-1-(4-fluorophenyl)-1H-indole-6-carboxamide (racemic)]
- IC50: 13 nM

Compound: O=C(NC1CCS(=O)(=O)C1)c1ccc2c(-c3cccc(C4CC4)c3)cn(-c3ccc(F)cc3)c2c1 (racemic) [Example 46, 3-(3-cyclopropylphenyl)-N-(1,1-dioxidotetrahydrothiophen-3-yl)-1-(4-fluorophenyl)-1H-indole-6-carboxamide (racemic)]
- IC50: 2.1 nM

Compound: O=C(NC1CCS(=O)(=O)C1)c1ccc2c(-c3c(Cl)cccc3Cl)cn(-c3ccc(F)cc3)c2c1 (racemic) [Example 47, 3-(2,6-dichlorophenyl)-N-(1,1-dioxidotetrahydrothiophen-3-yl)-1-(4-fluorophenyl)-1H-indole-6-carboxamide (racemic)]
- IC50: 942 nM

Compound: O=C(NC1CCS(=O)(=O)C1)c1ccc2c(-c3c(F)cccc3F)cn(-c3ccc(F)cc3)c2c1 (racemic) [Example 48, 3-(2,6-difluorophenyl)-N-(1,1-dioxidotetrahydrothiophen-3-yl)-1-(4-fluorophenyl)-1H-indole-6-carboxamide (racemic)]
- IC50: 53 nM

Compound: O=C(NC1CCS(=O)(=O)C1)c1ccc2c(-c3c(F)cccc3Cl)cn(-c3ccc(F)cc3)c2c1 (racemic) [Example 49, 3-(2-chloro-6-fluorophenyl)-N-(1,1-dioxidotetrahydrothiophen-3-yl)-1-(4-fluorophenyl)-1H-indole-6-carboxamide (racemic)]
- IC50: 155 nM

Compound: O=C(NC1CCS(=O)(=O)C1)c1ccc2c(-c3cncnc3)cn(-c3ccc(F)cc3)c2c1 (racemic) [Example 50, N-(1,1-dioxidotetrahydrothiophen-3-yl)-1-(4-fluorophenyl)-3-pyrimidin-5-yl-1H-indole-6-carboxamide (racemic)]
- IC50: 321 nM

Compound: Cn1ccc2cc(-c3cn(-c4ccc(F)cc4)c4cc(C(=O)NC5CCS(=O)(=O)C5)ccc34)ccc21 (racemic) [Example 51, N-(1,1-dioxidotetrahydrothiophen-3-yl)-1-(4-fluorophenyl)-1′-methyl-1H,1′H-3,5′-biindole-6-carboxamide (racemic)]
- IC50: 102 nM

Compound: O=C(NC1CCS(=O)(=O)C1)c1ccc2c(-c3cccnc3)cn(-c3ccc(F)cc3)c2c1 (racemic) [Example 52, N-(1,1-dioxidotetrahydrothiophen-3-yl)-1-(4-fluorophenyl)-3-pyridin-3-yl-1H-indole-6-carboxamide (racemic)]
- IC50: 129 nM

Compound: Cc1noc(C)c1-c1cn(-c2ccc(F)cc2)c2cc(C(=O)NC3CCS(=O)(=O)C3)ccc12 (racemic) [Example 53, 3-(3,5-dimethylisoxazol-4-yl)-N-(1,1-dioxidotetrahydrothiophen-3-yl)-1-(4-fluorophenyl)-1H-indole-6-carboxamide (racemic)]
- IC50: 502 nM

Compound: Cn1cc(-c2cn(-c3ccc(F)cc3)c3cc(C(=O)NC4CCS(=O)(=O)C4)ccc23)cn1 (racemic) [Example 54, N-(1,1-dioxidotetrahydrothiophen-3-yl)-1-(4-fluorophenyl)-3-(1-methyl-1H-pyrazol-4-yl)-1H-indole-6-carboxamide (racemic)]
- IC50: 345 nM

Compound: Cc1ccc(-c2cn(-c3ccc(F)cc3)c3cc(C(=O)NC4CCS(=O)(=O)C4)ccc23)cc1 (racemic) [Example 55, N-(1,1-dioxidotetrahydrothiophen-3-yl)-1-(4-fluorophenyl)-3-(4-methylphenyl)-1H-indole-6-carboxamide (racemic)]
- IC50: 696 nM

Compound: O=C(NC1CCS(=O)(=O)C1)c1ccc2c(-c3ccc(-n4cccn4)cc3)cn(-c3ccc(F)cc3)c2c1 (racemic) [Example 56, N-(1,1-dioxidotetrahydrothiophen-3-yl)-1-(4-fluorophenyl)-3-[4-(1H-pyrazol-1-yl)phenyl]-1H-indole-6-carboxamide (racemic)]
- IC50: 117 nM

Compound: O=C(NC1CCS(=O)(=O)C1)c1ccc2c(-c3ccc(OC(F)F)cc3)cn(-c3ccc(F)cc3)c2c1 (racemic) [Example 57, 3-[4-(difluoromethoxy)phenyl]-N-(1,1-dioxidotetrahydrothiophen-3-yl)-1-(4-fluorophenyl)-1H-indole-6-carboxamide (racemic)]
- IC50: 562 nM

Compound: O=C(NC1CCS(=O)(=O)C1)c1ccc2c(-c3cccc(OC(F)(F)F)c3)cn(-c3ccc(F)cc3)c2c1 (racemic) [Example 58, N-(1,1-dioxidotetrahydrothiophen-3-yl)-1-(4-fluorophenyl)-3-[3-(trifluoromethoxy)phenyl]-1H-indole-6-carboxamide (racemic)]
- IC50: 14 nM

Compound: O=C(NC1CCS(=O)(=O)C1)c1ccc2c(-c3cccc(O)c3)cn(-c3ccc(F)cc3)c2c1 (racemic) [Example 59, N-(1,1-dioxidotetrahydrothiophen-3-yl)-1-(4-fluorophenyl)-3-(3-hydroxyphenyl)-1H-indole-6-carboxamide (racemic)]
- IC50: 492 nM

Compound: COC(=O)c1cc(-c2cn(-c3ccc(F)cc3)c3cc(C(=O)NC4CCS(=O)(=O)C4)ccc23)cs1 (racemic) [Example 60, methyl 4-{6-[(1,1-dioxidotetrahydrothiophen-3-yl)carbamoyl]-1-(4-fluorophenyl)-1H-indol-3-yl}thiophene-2-carboxylate (racemic)]
- IC50: 175 nM

Compound: Cc1cc(C)n(-c2cccc(-c3cn(-c4ccc(F)cc4)c4cc(C(=O)NC5CCS(=O)(=O)C5)ccc34)c2)n1 (racemic) [Example 61, 3-[3-(3,5-dimethyl-1H-pyrazol-1-yl)phenyl]-N-(1,1-dioxidotetrahydrothiophen-3-yl)-1-(4-fluorophenyl)-1H-indole-6-carboxamide (racemic)]
- IC50: 929 nM

Compound: O=C(NC1CCS(=O)(=O)C1)c1ccc2c(-c3ccccc3Cl)cn(-c3ccc(F)cc3)c2c1 (single isomer, unassigned) [Example 2-A, 3-(2-chlorophenyl)-N-(1,1-dioxidotetrahydrothiophen-3-yl)-1-(4-fluorophenyl)-1H-indole-6-carboxamide]
- IC50: 171 nM

Compound: O=C(NC1CCS(=O)(=O)C1)c1ccc2c(-c3ccccc3Cl)cn(-c3ccc(F)cc3)c2c1 (single isomer, unassigned) [Example 2-B, 3-(2-chlorophenyl)-N-(1,1-dioxidotetrahydrothiophen-3-yl)-1-(4-fluorophenyl)-1H-indole-6-carboxamide]
- IC50: 30 nM

Compound: CC1(NC(=O)c2ccc3c(-c4ccccc4Cl)cn(-c4ccc(F)cc4)c3c2)CCS(=O)(=O)C1 (single isomer, unassigned; enantiomer a) [Example 1-A, 3-(2-chlorophenyl)-1-(4-fluorophenyl)-N-(3-methyl-1,1-dioxidotetrahydrothiophen-3-yl)-1H-indole-6-carboxamide (Enantiomer A, fast)]
- IC50: 5.6 nM

Compound: Cc1c(-c2ccccc2Cl)c2ccc(C(=O)NC3(C)CCS(=O)(=O)C3)cc2n1-c1ccc(F)cc1 (single isomer, unassigned; enantiomer a) [Example 8-A, 3-(2-chlorophenyl)-1-(4-fluorophenyl)-2-methyl-N-(3-methyl-1,1-dioxidotetrahydrothiophen-3-yl)-1H-indole-6-carboxamide (Enantiomer A)]
- IC50: 934 nM
